Experimental data as given in US6818203B2, “Use of perfluoroalkyl-containing metal complexes as contrast media in MR-imaging for visualization of plaque, tumors and necroses” (Schering Aktiengesellschaft, priority 2000, dated 2004).

What was measured:
[1] = proton relaxivity in plasma (R^1), Minispec P 20; format: physicochemical; settings: 40° C., 0.47 tesla, bovine plasma
Experimental: As a third criterion, the proton-relaxivity in plasma (R^1) at 40° C. and a field strength of 0.47 tesla is used. The relaxivity, which is indicated in [l/mmol·s], is the quantitative measurement for the shortening of relaxation time T^1 of the protons. For the purpose according to the invention, the relaxivity must be as high as possible and >10 l/mmol·s, preferably >13 l/mmol·s, especially preferably >15 l/mmol·s.
Relaxivity R^1 [l/mmol·s] of the MR-contrast media according to the invention was determined with the Minispec P 20 device of the Bruker Company. The measurements were taken at 40° C. and a field strength of 0.47 tesla. Eight measuring points were recorded by each T1-sequence: 180°-TI-90°, inversion recovery. As a medium, bovine plasma of the Kraeber Company was used. The contrast medium concentrations [mmol/l] in the batches were between 0.30 and 1.16.

iliac lymph nodes = assay: lymph node visualization (MRT) after intravenous administration in rats; format: in vivo; settings: 200 μmol of Gd/kg i.v.
Experimental: (§1) By way of example, the pictures in FIG. 8 show MR images of iliac lymph nodes precontrast and up to 60 minutes after intravenous administration of 100 μmol of Gd/kg of body weight of metal complex X in rats. […] The enhancement was thus 263% at the time of 15 minutes p.i. and 254% at the time of 60 minutes p.i.
as §1, with “11” for “8”, “200” for “100”, “V” for “X”, “147%” for “263%”, “230%” for “254%”
as §1, with “17” for “8”, “200” for “100”, “III” for “X”, “320%” for “263%”, “401%” for “254%”

[2] = organ distribution (including tumor and lymph node concentration) after intravenous administration in prostate cancer-bearing rats; format: in vivo; settings: 200 μmol Gd/kg i.v.
Experimental: After intravenous administration of 200 μmol of total gadolinium/kg of body weight of a polar Gd-chelate with perfluorinated side chains (metal complex XIV) in rats (Cop-inbreeding with Dunning R3327 MAT-Lu prostate cancer i.m.-implanted 12 days earlier), the metal content in various organs, in tumors, as well as in the lymph nodes (pooled as mesenteric and peripheral lymph nodes) was determined 10 minutes, 1 hour and 24 hours after administration (MW±SD, n=3).

[3] = Mesentric lymph nodes, 10 min p.i.
[4] = Mesentric lymph nodes, 1 h p.i.
[5] = Mesentric lymph nodes, 24 h p.i.
[6] = Peripheral lymph nodes, 10 min p.i.
[7] = Peripheral lymph nodes, 1 h p.i.
[8] = Peripheral lymph nodes, 24 h p.i.
[9] = The remainder of the body, 10 min p.i.
[10] = The remainder of the body, 1 h p.i.
[11] = The remainder of the body, 24 h p.i.

In the case of CC(C(=O)NCC(=O)N(CCOCCC(F)(F)C(F)(F)C(F)(F)C(F)(F)C(F)(F)C(F)(F)C(F)(F)C(F)(F)F)CC(O)CO)N1CCN(CC(=O)[O-])CCN(CC(=O)[O-])CCN(CC(=O)[O-])CC1.[Gd+3] (stereo not shown) [metal complex V], the “R^1 Plasma (relaxivity)” value [1] is reported as 19.6 mmol⁻¹ s⁻¹, the “enhancement in lymph node tissue” value (iliac lymph nodes; 15 minutes p.i.) is reported as 147% and the “enhancement in lymph node tissue” value (iliac lymph nodes; 60 minutes p.i.) is reported as 230%. The “signal in healthy lymph node tissue (T1-weighted gradient-echo images)” value (iliac lymph nodes; very shortly after injection) was “strong signal rise”.
With CC(C(=O)NCC(=O)NCC(=O)N1CCN(C(=O)CNC(=O)CNC(=O)C(C)N2CCN(CC(=O)[O-])CCN(CC(=O)[O-])CCN(CC(=O)[O-])CC2)CCN(C(=O)COCCC(F)(F)C(F)(F)C(F)(F)C(F)(F)C(F)(F)C(F)(F)C(F)(F)C(F)(F)F)CCN(C(=O)CNC(=O)CNC(=O)C(C)N2CCN(CC(=O)[O-])CCN(CC(=O)[O-])CCN(CC(=O)[O-])CC2)CC1)N1CCN(CC(=O)[O-])CCN(CC(=O)[O-])CCN(CC(=O)[O-])CC1.[Gd+3].[Gd+3].[Gd+3] (stereo not shown) [metal complex XIV, 1,4,7-Tris{1,4,7-tris(N-(carboxylatomethyl)-10-[N-1-methyl-3,6-diaza-2,5,8-trioxooctane-1,8-diyl]-1,4,7,10-tetraazacyclododecane, Gdcomplex}-10-N-2H,2H,4H,4H,5H,5H-3-oxa-perfluoro-tridecanoyl]-1,4,7,10-tetraazacyclo-dodecane, Gd complex] the “R^1 Plasma (relaxivity)” value [1] was 19.5 mmol⁻¹ s⁻¹, the “% Dose” value ([2]; Balance (without blood values), 24 h p.i.) was 95.07 ± 2.41 % Dose and the “% Dose” value ([2]; Blood (58 ml of blood/kg of body weight), 10 min p.i.) was 26.73 ± 0.84 % Dose. The “% Dose” value ([2]; Blood (58 ml of blood/kg of body weight), 1 h p.i.) was 16.13 ± 1.77 % Dose, the “% Dose” value ([2]; Blood (58 ml of blood/kg of body weight), 24 h p.i.) was 0.61 ± 0.03 % Dose and the Gd concentration ([2]; Blood, 10 min p.i.) was 957 ± 38 µmol/L. For the same compound, the Gd concentration ([2]; Blood, 1 h p.i.) was 575 ± 56 µmol/L, the Gd concentration ([2]; Blood, 24 h p.i.) was 22 ± 1 µmol/L and the “% Dose” value ([2]; Brain, 10 min p.i.) was 0.10 ± 0.03 % Dose. The Gd concentration ([2]; Brain, 10 min p.i.) was 38 ± 6 µmol/L, the “% Dose” value ([2]; Brain, 1 h p.i.) was 0.06 ± 0.00 % Dose and the Gd concentration ([2]; Brain, 1 h p.i.) was 22 ± 2 µmol/L. For the same compound, the “% Dose” value ([2]; Brain, 24 h p.i.) was 0.01 ± 0.01 % Dose, the Gd concentration ([2]; Brain, 24 h p.i.) was 4 ± 4 µmol/L and the “% Dose” value ([2]; Feces 0-24 h) was 6.00 ± 4.91 % Dose. For the same compound, the Gd concentration ([2]; Feces 0-24 h) was 781 ± 611 µmol/L, the “% Dose” value ([2]; Femur, 10 min p.i.) was 0.39 ± 0.02 % Dose and the Gd concentration ([2]; Femur, 10 min p.i.) was 115 ± 3 µmol/L. For the same compound, the “% Dose” value ([2]; Femur, 1 h p.i.) was 0.28 ± 0.03 % Dose, the Gd concentration ([2]; Femur, 1 h p.i.) was 81 ± 10 µmol/L and the “% Dose” value ([2]; Femur, 24 h p.i.) was 0.03 ± 0.00 % Dose. The Gd concentration ([2]; Femur, 24 h p.i.) was 9 ± 1 µmol/L, the “% Dose” value ([2]; Heart, 10 min p.i.) was 0.32 ± 0.01 % Dose and the Gd concentration ([2]; Heart, 10 min p.i.) was 320 ± 8 µmol/L. For the same compound, the “% Dose” value ([2]; Heart, 1 h p.i.) was 0.19 ± 0.01 % Dose, the Gd concentration ([2]; Heart, 1 h p.i.) was 190 ± 15 µmol/L and the “% Dose” value ([2]; Heart, 24 h p.i.) was 0.02 ± 0.00 % Dose. For the same compound, the Gd concentration ([2]; Heart, 24 h p.i.) was 19 ± 0 µmol/L, the “% Dose” value ([2]; Intestine (empty), 10 min p.i.) was 1.55 ± 0.09 % Dose and the Gd concentration ([2]; Intestine (empty), 10 min p.i.) was 242 ± 15 µmol/L. The “% Dose” value ([2]; Intestine (empty), 1 h p.i.) was 1.16 ± 0.22 % Dose, the Gd concentration ([2]; Intestine (empty), 1 h p.i.) was 201 ± 32 µmol/L and the “% Dose” value ([2]; Intestine (empty), 24 h p.i.) was 0.26 ± 0.04 % Dose. The Gd concentration ([2]; Intestine (empty), 24 h p.i.) was 36 ± 5 µmol/L, the “% Dose” value ([2]; Kidney, 10 min p.i.) was 1.76 ± 0.14 % Dose and the Gd concentration ([2]; Kidney, 10 min p.i.) was 761 ± 60 µmol/L. The “% Dose” value ([2]; Kidney, 1 h p.i.) was 2.84 ± 0.61 % Dose, the Gd concentration ([2]; Kidney, 1 h p.i.) was 1181 ± 232 µmol/L and the “% Dose” value ([2]; Kidney, 24 h p.i.) was 0.81 ± 0.09 % Dose. For the same compound, the Gd concentration ([2]; Kidney, 24 h p.i.) was 338 ± 49 µmol/L, the “% Dose” value ([2]; Liver, 10 min p.i.) was 2.62 ± 0.11 % Dose and the Gd concentration ([2]; Liver, 10 min p.i.) was 192 ± 12 µmol/L. The “% Dose” value ([2]; Liver, 1 h p.i.) was 2.04 ± 0.15 % Dose, the Gd concentration ([2]; Liver, 1 h p.i.) was 147 ± 7 µmol/L and the “% Dose” value ([2]; Liver, 24 h p.i.) was 0.96 ± 0.05 % Dose. For the same compound, the Gd concentration ([2]; Liver, 24 h p.i.) was 64 ± 4 µmol/L, the “% Dose” value ([2]; Lung, 10 min p.i.) was 1.04 ± 0.02 % Dose and the Gd concentration ([2]; Lung, 10 min p.i.) was 603 ± 30 µmol/L. For the same compound, the “% Dose” value ([2]; Lung, 1 h p.i.) was 0.80 ± 0.06 % Dose, the Gd concentration ([2]; Lung, 1 h p.i.) was 415 ± 39 µmol/L and the “% Dose” value ([2]; Lung, 24 h p.i.) was 0.09 ± 0.01 % Dose. The Gd concentration ([2]; Lung, 24 h p.i.) was 44 ± 4 µmol/L, the “% Dose” value [2, 3] was 0.08 ± 0.01 % Dose and the Gd concentration [2, 3] was 291 ± 29 µmol/L. The “% Dose” value [2, 4] was 0.05 ± 0.01 % Dose, the Gd concentration [2, 4] was 179 ± 16 µmol/L and the “% Dose” value [2, 5] was 0.02 ± 0.00 % Dose. For the same compound, the Gd concentration [2, 5] was 50 ± 6 µmol/L, the “% Dose” value ([2]; Muscle, 10 min p.i.) was 0.06 ± 0.02 % Dose and the Gd concentration ([2]; Muscle, 10 min p.i.) was 93 ± 5 µmol/L. The “% Dose” value ([2]; Muscle, 1 h p.i.) was 0.04 ± 0.00 % Dose, the Gd concentration ([2]; Muscle, 1 h p.i.) was 56 ± 3 µmol/L and the “% Dose” value ([2]; Muscle, 24 h p.i.) was 0.00 ± 0.00 % Dose. For the same compound, the Gd concentration ([2]; Muscle, 24 h p.i.) was 8 ± 1 µmol/L, the “% Dose” value ([2]; Pancreas, 10 min p.i.) was 0.35 ± 0.02 % Dose and the Gd concentration ([2]; Pancreas, 10 min p.i.) was 191 ± 14 µmol/L. The “% Dose” value ([2]; Pancreas, 1 h p.i.) was 0.21 ± 0.05 % Dose, the Gd concentration ([2]; Pancreas, 1 h p.i.) was 139 ± 26 µmol/L and the “% Dose” value ([2]; Pancreas, 24 h p.i.) was 0.03 ± 0.01 % Dose. The Gd concentration ([2]; Pancreas, 24 h p.i.) was 25 ± 1 µmol/L, the “% Dose” value [2, 6] was 0.13 ± 0.00 % Dose and the Gd concentration [2, 6] was 284 ± 19 µmol/L. For the same compound, the “% Dose” value [2, 7] was 0.14 ± 0.02 % Dose, the Gd concentration [2, 7] was 254 ± 14 µmol/L and the “% Dose” value [2, 8] was 0.02 ± 0.00 % Dose. The Gd concentration [2, 8] was 51 ± 5 µmol/L, the “% Dose” value ([2]; Spleen, 10 min p.i.) was 0.13 ± 0.01 % Dose and the Gd concentration ([2]; Spleen, 10 min p.i.) was 200 ± 13 µmol/L. For the same compound, the “% Dose” value ([2]; Spleen, 1 h p.i.) was 0.08 ± 0.01 % Dose, the Gd concentration ([2]; Spleen, 1 h p.i.) was 123 ± 10 µmol/L and the “% Dose” value ([2]; Spleen, 24 h p.i.) was 0.06 ± 0.00 % Dose. The Gd concentration ([2]; Spleen, 24 h p.i.) was 69 ± 5 µmol/L, the “% Dose” value ([2]; Stomach (empty), 10 min p.i.) was 0.56 ± 0.07 % Dose and the Gd concentration ([2]; Stomach (empty), 10 min p.i.) was 244 ± 17 µmol/L. For the same compound, the “% Dose” value ([2]; Stomach (empty), 1 h p.i.) was 0.40 ± 0.05 % Dose, the Gd concentration ([2]; Stomach (empty), 1 h p.i.) was 165 ± 21 µmol/L and the “% Dose” value ([2]; Stomach (empty), 24 h p.i.) was 0.05 ± 0.00 % Dose. For the same compound, the Gd concentration ([2]; Stomach (empty), 24 h p.i.) was 19 ± 2 µmol/L, the “% Dose” value ([2]; Sum of the organs, 10 min p.i.) was 80.06 ± 2.84 % Dose and the “% Dose” value ([2]; Sum of the organs, 1 h p.i.) was 72.94 ± 5.83 % Dose. For the same compound, the “% Dose” value ([2]; Sum of the organs, 24 h p.i.) was 9.21 ± 0.27 % Dose, the “% Dose” value [2, 9] was 70.71 ± 2.74 % Dose and the Gd concentration [2, 9] was 419 ± 27 µmol/L. For the same compound, the “% Dose” value [2, 10] was 64.27 ± 5.50 % Dose, the Gd concentration [2, 10] was 392 ± 25 µmol/L and the “% Dose” value [2, 11] was 6.81 ± 0.16 % Dose. The Gd concentration [2, 11] was 42 ± 0 µmol/L, the “% Dose” value ([2]; Tumor, 10 min p.i.) was 0.25 ± 0.05 % Dose and the Gd concentration ([2]; Tumor, 10 min p.i.) was 246 ± 25 µmol/L. The “% Dose” value ([2]; Tumor, 1 h p.i.) was 0.37 ± 0.14 % Dose, the Gd concentration ([2]; Tumor, 1 h p.i.) was 266 ± 87 µmol/L and the “% Dose” value ([2]; Tumor, 24 h p.i.) was 0.04 ± 0.01 % Dose. The Gd concentration ([2]; Tumor, 24 h p.i.) was 56 ± 4 µmol/L, the “% Dose” value ([2]; Urine 0-24 h) was 79.86 ± 3.13 % Dose and the Gd concentration ([2]; Urine 0-24 h) was 619 ± 19 µmol/L.
